Test results published in paper PMC6050284, “Molecular characterization and functional differentiation of three pheromone-binding proteins from Tryporyza intacta” (Scientific Reports, 2018).

Legend:
Parameters in all cases: species or system Tryporyza intacta
TintPBP2 = TintPBP2 (Scirpophaga excerptalis, UniProt A0A345D2V6); assay: Fluorescence competitive binding assay with 1-NPN probe, TintPBP2; conditions: for Ki: calculated from IC50, 1-NPN probe; for IC50: displacement of 1-NPN (2 μM), 25 °C; for Binding to TintPBP2 in competitive binding (in words): competitor 0.5–10.0 μM
Sequence of TintPBP2 (A0A345D2V6 entry or part of it): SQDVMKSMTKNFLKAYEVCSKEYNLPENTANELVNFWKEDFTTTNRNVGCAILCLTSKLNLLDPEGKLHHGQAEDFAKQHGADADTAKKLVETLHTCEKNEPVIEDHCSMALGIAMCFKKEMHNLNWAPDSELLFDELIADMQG
Experimental: (§1) To measure the affinities of the sex pheromones to TintPBP1-3 proteins, we used N-Phenyl-1-naphthylamine (1-NPN) as the fluorescent probe on a Hitachi F-4500 at 25 °C based on the method of Mao et al.[17]. 1-NPN was used as the fluorescent reporter (2 μM) and 0.5–10.0 μM for each competitor was used to test fluorescence competitive binding affinities of sex pheromones. Six compounds were selected and measured in competitive binding assays. The dissociation constant for 1-NPN and binding results were analyzed by Prism software. Each of IC50 values (concentrations of ligands halving the initial fluorescence value of 1-NPN) from competitors were calculated using following equation: Ki=[IC50]/1+[1−NPN]/K1−NPN, where [1-NPN] is the free concentration of 1-NPN and K1−NPN is the dissociation constant of the complex protein/1-NPN.

TintPBP3 = TintPBP3 (Scirpophaga excerptalis, UniProt A0A345D2V7); assay: Fluorescence competitive binding assay with 1-NPN probe, TintPBP3; conditions: for Ki: calculated from IC50, 1-NPN probe; for IC50: displacement of 1-NPN (2 μM), 25 °C; for Binding to TintPBP3 in competitive binding (in words): competitor 0.5–10.0 μM
Sequence of TintPBP3 (A0A345D2V7 entry or part of it): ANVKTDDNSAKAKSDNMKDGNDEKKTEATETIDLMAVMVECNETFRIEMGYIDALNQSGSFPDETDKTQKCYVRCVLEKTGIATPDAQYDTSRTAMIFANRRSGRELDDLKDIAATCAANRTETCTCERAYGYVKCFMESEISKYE
Experimental: as §1

TintPBP1 = TintPBP1 (Scirpophaga excerptalis, UniProt A0A345D2V5); assay: Fluorescence competitive binding assay with 1-NPN probe, TintPBP1; conditions: for Ki: calculated from IC50, 1-NPN probe; for IC50: displacement of 1-NPN (2 μM), 25 °C; for Binding to TintPBP1 in competitive binding (in words): competitor 0.5–10.0 μM
Sequence of TintPBP1 (A0A345D2V5 entry or part of it): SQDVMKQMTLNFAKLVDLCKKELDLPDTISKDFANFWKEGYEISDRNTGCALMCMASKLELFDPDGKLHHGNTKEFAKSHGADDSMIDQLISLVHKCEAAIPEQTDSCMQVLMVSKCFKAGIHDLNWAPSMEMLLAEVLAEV
Experimental: as §1

Q: Which Ki (TintPBP2) does the source give for `CCCC/C=C/CCCCCCCCCC=O` [E11–16: Ald] here?
A: 3.58 ± 0.13 µM

Q: And the IC50 (TintPBP2)?
A: 4.78 ± 0.17 µM

Q: What about the Ki (TintPBP3) of the same molecule?
A: 3.45 ± 0.21 µM

Q: What about the IC50 (TintPBP3) of the same molecule?
A: 4.08 ± 0.24 µM

Q: What about the Ki (TintPBP1) of the same molecule?
A: 2.15 ± 0.16 µM

Q: What about the IC50 (TintPBP1) of the same molecule?
A: 3.09 ± 0.22 µM

Q: `CCCC/C=C\CCCCCCCCCC=O` [Z11–16: Ald] was tested. Which Ki (TintPBP2) did it give?
A: 2.83 ± 0.11 µM

Q: What about the IC50 (TintPBP2) of the same molecule?
A: 3.81 ± 0.15 µM

Q: What about the Ki (TintPBP3) of the same molecule?
A: 3.96 ± 0.28 µM

Q: And the IC50 (TintPBP3)?
A: 4.66 ± 0.33 µM

Q: What about the Ki (TintPBP1) of the same molecule?
A: 2.95 ± 0.04 µM

Q: And the IC50 (TintPBP1)?
A: 4.27 ± 0.05 µM

Q: What does the source list for `CCCC/C=C\CCCCCCCCCCOC(C)=O` [Z11–16:AC]?
A: Binding to TintPBP2 in competitive binding (in words) (TintPBP2): cannot bind; Binding to TintPBP3 in competitive binding (in words) (TintPBP3): cannot bind; Binding to TintPBP1 in competitive binding (in words) (TintPBP1): cannot bind

Q: For `CCCC/C=C\CCCCCCCCCCO` [Z11–16:OH], which “Binding to TintPBP2 in competitive binding (in words)” value (TintPBP2) is on record?
A: cannot bind

Q: What about the “Binding to TintPBP3 in competitive binding (in words)” value (TintPBP3) of the same molecule?
A: cannot bind

Q: And the “Binding to TintPBP1 in competitive binding (in words)” value (TintPBP1)?
A: cannot bind

Q: Which results are given for `CCCC/C=C\CCCCCCCCCCCCOC(C)=O` [Z13–18:AC]?
A: Binding to TintPBP2 in competitive binding (in words) (TintPBP2): cannot bind; Binding to TintPBP3 in competitive binding (in words) (TintPBP3): cannot bind; Binding to TintPBP1 in competitive binding (in words) (TintPBP1): cannot bind

Q: `CCCC/C=C\CCCCCCCCCCCCO` [Z13–18:OH] was tested. Which “Binding to TintPBP2 in competitive binding (in words)” value (TintPBP2) did it give?
A: cannot bind

Q: And the “Binding to TintPBP3 in competitive binding (in words)” value (TintPBP3)?
A: cannot bind

Q: And the “Binding to TintPBP1 in competitive binding (in words)” value (TintPBP1)?
A: cannot bind
